Experimental data reported in patent publication US20190367516A1 (Bayer Pharma Aktiengesellschaft, priority 2015, published 2019).

Assays:
human M2 receptor [1] = molecular target: T1, human M2 receptor (Homo sapiens, UniProt P08172); assay type: cell-based; settings: shift in the acetylcholine dose-response curve (Allosteric EC50 shift, GraphPad PRISM); α >1 = positive cooperativity
T1 sequence (P08172 1-466): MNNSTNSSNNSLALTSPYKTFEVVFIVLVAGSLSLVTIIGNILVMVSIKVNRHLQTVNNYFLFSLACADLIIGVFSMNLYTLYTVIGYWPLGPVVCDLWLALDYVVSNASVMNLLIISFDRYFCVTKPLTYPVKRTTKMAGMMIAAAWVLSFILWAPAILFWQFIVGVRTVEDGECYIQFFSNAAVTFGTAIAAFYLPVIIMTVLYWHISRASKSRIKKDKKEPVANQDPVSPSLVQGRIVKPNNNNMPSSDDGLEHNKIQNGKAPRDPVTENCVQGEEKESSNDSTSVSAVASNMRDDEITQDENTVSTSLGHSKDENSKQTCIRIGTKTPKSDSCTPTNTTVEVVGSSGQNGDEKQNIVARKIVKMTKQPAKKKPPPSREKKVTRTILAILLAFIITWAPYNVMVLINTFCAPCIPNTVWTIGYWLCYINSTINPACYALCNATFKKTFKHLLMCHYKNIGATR

human M2 receptor [2] = molecular target: T1, human M2 receptor; settings: for EC50: Receptor activity EC50, M2-GIRK1/4 activation test, acetylcholine at EC20, allosteric potency, in some cases mean values from two or more determinations
Source text: Functional M2-GIRK1/4 Activation Test
The binding of orthosteric agonists (endogenous ligand: acetylcholine) to the M2 receptor leads to receptor activation or a change in conformation of the receptor in the manner of a shift in equilibrium in favour of the active receptor conformation.
The agonist-induced change in conformation of the M2 receptor results in a Gαi protein activation. […] Under physiological conditions, the result is then a selective efflux of potassium from the cell along the electrochemical gradient. […] The extent of hyperpolarization can therefore be regarded as a measure of the activation of the M2 receptor.
The test cell used is a recombinant CHO-DUKX cell line which has been stably transfected with cDNA coding for the human M2 receptor and with cDNA coding for both GIRK1/4 subunits (CHO-DUKX-M2-GIRK). The transmembrane potential, or the relative changes in the transmembrane potential as a function of substance addition or M2 activation, is determined by means of a voltage-sensitive dye (FLIPR Membrane Potential Assay Kit Blue, Molecular Devices # R8034) and the measurement of cell fluorescence using a proprietary fluorescence imaging instrument.
Determination of the Allosteric Potency of the Test Substances (EC50 Value)
The sowing medium consisted of MEM alpha medium (supplemented with 5% FCS, 2% Glutamax, no genticin).
For the particular measurement, the medium was removed and the cells were laden with the voltage-sensitive dye for at least 6 min at room temperature (30 μl of loading buffer per 384-well). This was followed, in a first measurement, by the determination of the fluorescence for the resting transmembrane potential for a period of 5 sec. Thereafter, 10 μl in each case of the test substances diluted in loading buffer were added, followed by a second measurement to determine the transmembrane potential for a period of 50 sec. Finally, the cells were admixed with 10 μl of agonist solution (acetylcholine dissolved in loading buffer). Acetylcholine was used at the concentration corresponding to the EC20, which had been determined in a preliminary test. The M2-mediated GIRK1/4 activation or hyperpolarization was then monitored in a third measurement over a period of 60 sec. The EC50 value (degree of allosteric potency of test compound) and the efficiency (measure of the boosting of the acetylcholine effect at an EC20 acetylcholine concentration) were determined with the aid of a 4-parameter logistic function (Hill function).

| SMILES | Cooperativity (alpha factor) (human M2 receptor [1]) | EC50 (human M2 receptor [2]) [nM] | Emax (human M2 receptor [2]; read-out: Efficiency) [%] |
| --- | --- | --- | --- |
| COC(=O)N1CCN(c2ccc3c(=O)c(C(=O)NC45CC6CC(CC(C6)C4)C5)cn(-c4ccc(F)cc4F)c3n2)CC1 [Example 4, Methyl 4-[8-(2,4-difluorophenyl)-5-oxo-6-(tricyclo[3.3.1.1^3,7]dec-1-ylcarbamoyl)-5,8-dihydro-1,8-naphthyridin-2-yl]piperazine-1-carboxylate] | 30 | 24 | – |
| O=C(NC12CC3CC(CC(C3)C1)C2)c1cn(-c2ccc(F)cc2F)c2nc(N3CCC(O)(O)C(F)(F)C3)ccc2c1=O [Example 6, 7-(3,3-Difluoro-4,4-dihydroxypiperidin-1-yl)-1-(2,4-difluorophenyl)-4-oxo-N-(tricyclo[3.3.1.1^3,7]dec-1-yl)-1,4-dihydro-1,8-naphthyridine-3-carboxamide] | 15 | 34 | – |
| O=C(NC12CC3CC(CC(C3)C1)C2)c1cn(-c2ccc(F)cc2F)c2nc(N3CCC(O)(O)[C@H](F)C3)ccc2c1=O [Example 7, 1-(2,4-Difluorophenyl)-7-[(3R)-3-fluoro-4,4-dihydroxypiperidin-1-yl]-4-oxo-N-(tricyclo[3.3.1.1^3,7]dec-1-yl)-1,4-dihydro-1,8-naphthyridine-3-carboxamide] | 34 | 34 | – |
| N#CC1CCCN(c2ccc3c(=O)c(C(=O)NC45CC6CC(CC(C6)C4)C5)cn(-c4ccc(F)cc4F)c3n2)C1 (stereo not drawn) [Example 10, 7-(3-Cyanopiperidin-1-yl)-1-(2,4-difluorophenyl)-4-oxo-N-(tricyclo[3.3.1.1^3,7]dec-1-yl)-1,4-dihydro-1,8-naphthyridine-3-carboxamide] | 12 | 60 | – |
| C[C@@H]1C[C@H](F)CN1c1ccc2c(=O)c(C(=O)NC34CC5CC(CC(C5)C3)C4)cn(-c3ccc(F)cc3F)c2n1 [Example 11, 1-(2,4-Difluorophenyl)-7-[(2R,4S)-4-fluoro-2-methylpyrrolidin-1-yl]-4-oxo-N-(tricyclo[3.3.1.1^3,7]dec-1-yl)-1,4-dihydro-1,8-naphthyridine-3-carboxamide] | 10 | 61 | – |
| O=C(NC12CC3CC(CC(C3)C1)C2)c1cn(-c2ccc(F)cc2F)c2nc(N3CCC4(C3)CC4(F)F)ccc2c1=O (stereo not drawn) [Example 13, 7-(1,1-Difluoro-5-azaspiro[2.4]hept-5-yl)-1-(2,4-difluorophenyl)-4-oxo-N-(tricyclo[3.3.1.1^3,7]dec-1-yl)-1,4-dihydro-1,8-naphthyridine-3-carboxamide] | 6 | 71 | – |
| O=C(NC12CC3CC(CC(C3)C1)C2)c1cn(-c2ccc(F)cc2F)c2nc(N3CCCC[C@H]3CO)ccc2c1=O [Example 15, 1-(2,4-Difluorophenyl)-7-[(2S)-2-(hydroxymethyl)piperidin-1-yl]-4-oxo-N-(tricyclo[3.3.1.1^3,7]dec-1-yl)-1,4-dihydro-1,8-naphthyridine-3-carboxamide] | 8 | 85 | – |
| CO[C@@H]1CCN(c2ccc3c(=O)c(C(=O)NC45CCC(C)(CC4)CC5)cn(-c4ccc(F)cc4F)c3n2)C1 [Example 19, 1-(2,4-Difluorophenyl)-7-[(3R)-3-methoxypyrrolidin-1-yl]-N-(4-methylbicyclo[2.2.2]oct-1-yl)-4-oxo-1,4-dihydro-1,8-naphthyridine-3-carboxamide] | 12 | 58 | – |
| CC12CCC(NC(=O)c3cn(-c4ccc(F)cc4F)c4nc(N5CC[C@@H](O)C5)ccc4c3=O)(CC1)CC2 [Example 20, 1-(2,4-Difluorophenyl)-7-[(3R)-3-hydroxypyrrolidin-1-yl]-N-(4-methylbicyclo[2.2.2]oct-1-yl)-4-oxo-1,4-dihydro-1,8-naphthyridine-3-carboxamide] | 34 | 42 | – |
| CC[C@@H](NC(=O)c1cn(-c2ccc(F)cc2F)c2nc(NCCF)ccc2c1=O)C(F)(F)F [Example 27, 1-(2,4-Difluorophenyl)-7-[(2-fluoroethyl)amino]-4-oxo-N-[(2R)-1,1,1-trifluorobutan-2-yl]-1,4-dihydro-1,8-naphthyridine-3-carboxamide] | 20 | 89 | – |
| CC[C@@H](NC(=O)c1cn(-c2ccc(F)cc2F)c2nc(N3C[C@@H](F)C[C@H]3C)ccc2c1=O)C(F)(F)F [Example 31, 1-(2,4-Difluorophenyl)-7-[(2R,4S)-4-fluoro-2-methylpyrrolidin-1-yl]-4-oxo-N-[(2R)-1,1,1-trifluorobutan-2-yl]-1,4-dihydro-1,8-naphthyridine-3-carboxamide] | 13 | 40 | – |
| CC[C@@H](NC(=O)c1cn(-c2ccc(F)cc2F)c2nc(N3CC[C@@H](F)[C@H](O)C3)ccc2c1=O)C(F)(F)F [Example 33, 1-(2,4-Difluorophenyl)-7-[(3R,4R)-4-fluoro-3-hydroxypiperidin-1-yl]-4-oxo-N-[(2R)-1,1,1-trifluorobutan-2-yl]-1,4-dihydro-1,8-naphthyridine-3-carboxamide] | 20 | 91 | – |
| CC[C@@H](NC(=O)c1cn(-c2ccc(F)cc2F)c2nc(N3CCC(O)(O)C(F)(F)C3)ccc2c1=O)C(F)(F)F [Example 35, 7-(3,3-Difluoro-4,4-dihydroxypiperidin-1-yl)-1-(2,4-difluorophenyl)-4-oxo-N-[(2R)-1,1,1-trifluorobutran-2-yl]-1,4-dihydro-1,8-naphthyridine-3-carboxamide] | 24 | 62 | – |
| CN(C)c1ccc2c(=O)c(C(=O)NC34CC5CC(CC(C5)C3)C4)cn(-c3ccc(F)cc3F)c2n1 [Example 36, 1-(2,4-Difluorophenyl)-7-(dimethylamino)-4-oxo-N-(tricyclo[3.3.1.1^3,7]dec-1-yl)-1,4-dihydro-1,8-naphthyridine-3-carboxamide] | 16 | 19 | 96.1 |
| CN(C)c1ccc2c(=O)c(C(=O)NC34CC5CC(F)(CC(F)(C5)C3)C4)cn(-c3ccc(F)cc3F)c2n1 [Example 38, 1-(2,4-Difluorophenyl)-N-(3,5-difluorotricyclo[3.3.1.1^3,7]dec-1-yl)-7-(dimethylamino)-4-oxo-1,4-dihydro-1,8-naphthyridine-3-carboxamide] | 14 | 41 | – |
| CN(C)c1ccc2c(=O)c(C(=O)NC34CC5CC(C3)C(F)(F)C(C5)C4)cn(-c3ccc(F)cc3F)c2n1 [Example 39, 1-(2,4-Difluorophenyl)-N-(4,4-difluorotricyclo[3.3.1.1^3,7]dec-1-yl)-7-(dimethylamino)-4-oxo-1,4-dihydro-1,8-naphthyridine-3-carboxamide] | 14 | 88 | – |
| C[C@H](NC(=O)c1cn(-c2ccc(F)cc2F)c2nc(N(C)C)ccc2c1=O)C(F)(F)F [Example 44, 1-(2,4-Difluorophenyl)-7-(dimethylamino)-4-oxo-N-[(2S)-1,1,1-trifluoropropan-2-yl]-1,4-dihydro-1,8-naphthyridine-3-carboxamide] | 12 | 111 | – |
| CN(C)c1ccc2c(=O)c(C(=O)Nc3ccccc3C(F)(F)F)cn(-c3ccc(F)cc3F)c2n1 [Example 57, 1-(2,4-Difluorophenyl)-7-(dimethylamino)-4-oxo-N-[2-(trifluoromethyl)phenyl]-1,4-dihydro-1,8-naphthyridine-3-carboxamide] | 7 | 82 | – |
| CN(C)c1ccc2c(=O)c(C(=O)NCc3ccccc3C(F)(F)F)cn(-c3ccc(F)cc3F)c2n1 [Example 59, 1-(2,4-Difluorophenyl)-7-(dimethylamino)-4-oxo-N-[2-(trifluoromethyl)benzyl]-1,4-dihydro-1,8-naphthyridine-3-carboxamide] | 11 | 94 | – |
| CN(C)c1ccc2c(=O)c(C(=O)NCc3c(F)cccc3C(F)(F)F)cn(-c3ccc(F)cc3F)c2n1 [Example 60, 1-(2,4-Difluorophenyl)-7-(dimethylamino)-N-[2-fluoro-6-(trifluoromethyl)benzyl]-4-oxo-1,4-dihydro-1,8-naphthyridine-3-carboxamide] | 8 | 155 | – |
| CC[C@H](NC(=O)c1cn(-c2ccc(F)cc2F)c2nc(N3CC[C@H](F)C3)ccc2c1=O)C(F)(F)F [Example 64, 1-(2,4-Difluorophenyl)-7-[(3S)-3-fluoropyrrolidin-1-yl]-4-oxo-N-[(2S)-1,1,1-trifluorobutan-2-yl]-1,4-dihydro-1,8-naphthyridine-3-carboxamide] | 28 | 12 | – |
| CC(C)CC(NC(=O)c1cn(-c2ccc(F)cc2F)c2nc(N3CC[C@H](F)C3)ccc2c1=O)C(F)(F)F (stereo partly drawn) [Example 65, 1-(2,4-Difluorophenyl)-7-[(3S)-3-fluoropyrrolidin-1-yl]-4-oxo-N-[1,1,1-trifluoro-4-methylpentan-2-yl]-1,4-dihydro-1,8-naphthyridine-3-carboxamide] | 36 | 7 | – |
